Experimental data as given in US12678518B2, “Theranostic probe and its use for targeting and/or labeling the EGFR kinase and/or the cells expressing EGFR or its family members” (Tianjin University, priority 2019, dated 2026).

Assays:
[1] = target: EGFR (Homo sapiens, UniProt P00533); assay: Inhibition of the EGF receptor kinase activity (EGFR phosphorylation, western blotting); settings: EGFR-transfected HEK293T cells, 10 minutes
Protocol: Inhibition of the EGF receptor kinase activity. […] Treated cells were lysed by mixing with 40 μl/well lysis buffer (50 mM Tris, pH 7.5, 150 mM NaCl, 1% TritonX-100, 1% sodium deoxycholate, 0.1% SDS, 10 mM EDTA, 1 mM Na3VO4, 2 mM PMSF). […] The supernatants were mixed with 6×SDS sample buffer, and were subjected to SDS-PAGE and Western blotting analysis. The expression and phosphorylation levels of EGFR were detected by 4G10 and anti-Protein C antibodies, respectively, in western blotting.
In the assay, EGFR-transfected HEK293T cells were treated with the PDCy3 probe at different concentrations for 10 minutes in the presence and absence of 10 nM EGF. The expression and phosphorylation levels of the EGF receptor were detected and analyzed by western blotting.
Inhibition of the EGF receptor kinase activity. […] Treated cells were lysed by mixing with 40 μL/well lysis buffer (50 mM Tris, pH 7.5, 150 mM NaCl, 1% Triton X-100, 1% sodium deoxycholate, 0.1% SDS, 10 mM EDTA, 1 mM Na3VO4, 2 mM PMSF). […] The expression and phosphorylation levels of EGFR were detected by 4G10 and anti-Protein C antibodies, respectively, in western blotting.
In the assay, EGFR-transfected HEK293T cells were treated with PDCy3 at different concentrations for 10 minutes in the presence or absence of 10 nM EGF. The expression and phosphorylation levels of EGFR were detected and analyzed by western blotting.

[2] = target: T1, EGFR V924R (Homo sapiens, UniProt P00533, V948R); assay: Flowcytometry of PDCy3 binding to cells expressing EGFR V924R mutant; type: cell-based; settings: 1 μM PDCy3
T1 construct: plasmids encoding human EGFR (1-988) and split YFP fragments; expressed in transfected cells; host or cells: HEK 293T
Protocol: Cell sorting. Following starvation in EX-Cell 293 Serum-Free Medium for 44 hours, transfected cells were treated with gefitinib, PDCy3, or EGF for 4 hours at 37° C. Then, the cells were washed twice with 500 μl/well ice-cold PBS, and were re-suspended in 400 μl/well PBS. The final cell density was estimated to be 5×10^5˜1×10^6 cells/ml. To detect EGFR expression, 3 μd anti-EGFR 528 antibody (santa cruz biotechnology inc, USA) at 200 μg/ml concentration was added to each well of re-suspended cells. After 30-minute incubation on ice, cells were washed twice with 500 μl/well PBS, and were re-suspended in […]. Then, 0.3 μl FITC-labelled secondary antibody at a concentration of 2 mg/ml was added to each sample. After incubation on ice for 30 minutes, cells were washed three times with PBS, re-suspended in 400 μl/well PBS, and analyzed by flowcytometry using a BD FACS Calibur machine.
Cell sorting. Following starvation in EX-Cell 293 Serum-Free Medium for 44 hours, transfected cells were treated with gefitinib, PDCy3, or EGF for 4 hours at 37° C. Then, the cells were washed twice with 500 μL/well ice-cold PBS, and were re-suspended in 400 μL/well PBS. The final cell density was estimated to be 5×10^5˜1×10^6 cells/mL. […] After incubation on ice for 30 minutes, cells were washed three times with PBS, re-suspended in 400 μL/well PBS, and analyzed by floweytometry using a BD FACS Calibur machine.

[3] = target: T2, EGFR dimers (L834R) (Homo sapiens, UniProt P00533, L858R); assay: Protein complementary assay (split YFP), PDCy3 binding to EGFR dimers, L834R; type: cell-based
T2 construct: one encoding human EGFR(1-998) fused with a split YFP-N(1-172) fragment; the other encoding hEGFR(1-998) linked to a split YFP-C(155-238) fragment; expressed in transfected cells; host or cells: HEK 293T
Excerpt: Protein complementary assay. For protein complementary assay, we designed two complementary constructs: one encoding human EGFR(1-998) fused with a split YFP-N(1-172) fragment, and the other encoding hEGFR(1-998) linked to a split YFP-C(155-238) fragment. Kinase mutations were introduced on both constructs to make a complementary pair. All the constructs were verified by sequencing. The paired constructs encoding the same receptor were co-transfected into HEK 293T cells. Transfected cells were starved in EX-Cell 293 Serum-Free Medium for 44 hours before treatment with 1 μM PDCy3 for additional 4 hours. The dimerization of the EGF receptors and the binding of dimerized receptors to PDCy3 were analyzed by flowcytometry.
To further investigate how EGFR kinase dimerization affects PDCy3 binding, we did a protein complementary assay. In the assay, split YFP fragments were individually fused to the C-terminus of the full length EGFR, and EGF kinase dimerization was reported by the fluorescence of assembled YPF from co-transfected receptors (FIG. 4A)^23. As shown in the FIG. 4B, the cells with co-expressed EGFR dimers could be divided into two populations. In one population, the quantity of bound PDCy3 increased linearly as a function of the expression levels of EGFR dimers (FIG. 4C). But in the other population, the quantity of bound PDCy3 was independent of the expressed EGFR dimers. […]

CN1/C(=C/C=C/C2=[N+](CCCCCC(=O)NCCC/C=C/C(=O)Nc3ccc4ncnc(Nc5cccc(Br)c5)c4c3)c3ccc(S(=O)(=O)O)cc3C2(C)C)C(C)(C)c2cc(S(=O)(=O)[O-])ccc21 [PDCy3, 1-(6-((E)-6-(4-(3-bromophenylamino)quinazolin-6-ylamino)-6-oxohex-4-enylamino)-6-oxohexyl)-3,3-dimethyl-2-((1E,3E)-3-(1,3,3-trimethyl-5-sulfonatoindolin-2-ylidene)prop-1-enyl)-3H-indolium-5-sulfonate] was tested, and the “concentration at which EGFR kinase activity was completely inhibited” value ([1]; presence and absence of 10 nM EGF, western blotting) was 20 µM, the “inhibition of EGFR kinase activity (in words)” value ([1]; different concentrations) was “inhibit the kinase activity of EGFR in a dose dependent manner” and the “enhancement of PDCy3 binding (fraction of PDCy3-bound cells) by V924R mutation” value [2] was 8%. The “fraction of the population with the higher sensitivity to PDCy3 (population A)” value ([3]; L834R receptor pair, 1 μM PDCy3) was 27.4% and the “sensitivity of population A versus population B in response to PDCy3 binding” value ([3]; L858R (so in the source) mutant dimers) was 5 times.
